In ChEMBL document CHEMBL1201862, “PubChem BioAssay data set” (2004):
The source made the active and inactive calls.

Assays:
[1] = target: T1, Endoribonuclease toxin MazF (Escherichia coli K-12, UniProt P0AE70); experiment: MazF toxin RNase activators, dose response, biochemical, fluorescence, single-stranded RNA substrate, uHTS hits (AID 588481); format: functional
T1 sequence (P0AE70 whole entry): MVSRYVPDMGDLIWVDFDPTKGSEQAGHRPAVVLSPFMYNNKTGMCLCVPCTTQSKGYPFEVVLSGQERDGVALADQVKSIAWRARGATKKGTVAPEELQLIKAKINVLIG

[2] = target: T1, Endoribonuclease toxin MazF; experiment: fluorescent RNA oligo signal without MazF, dose response, counter-screen for MazEF activator project, biochemical, fluorescence, single-stranded RNase substrate (AID 588502); format: functional
[3] = target: T2, Heat shock factor protein 1 (Mus musculus, UniProt P38532); experiment: inhibition of MG132-induced HSE-luciferase signal, confirmation, cell-based, NIH3T3, luminescence, dose retest (AID 2382); format: functional;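 note: NIH3T3 fibroblasts with HSF1-driven luciferase reporter stressed by proteasome inhibitor MG132; luminescence from HSF1-driven luciferase expression after 8 hours of MG132 stress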
T2 sequence (P38532 whole entry): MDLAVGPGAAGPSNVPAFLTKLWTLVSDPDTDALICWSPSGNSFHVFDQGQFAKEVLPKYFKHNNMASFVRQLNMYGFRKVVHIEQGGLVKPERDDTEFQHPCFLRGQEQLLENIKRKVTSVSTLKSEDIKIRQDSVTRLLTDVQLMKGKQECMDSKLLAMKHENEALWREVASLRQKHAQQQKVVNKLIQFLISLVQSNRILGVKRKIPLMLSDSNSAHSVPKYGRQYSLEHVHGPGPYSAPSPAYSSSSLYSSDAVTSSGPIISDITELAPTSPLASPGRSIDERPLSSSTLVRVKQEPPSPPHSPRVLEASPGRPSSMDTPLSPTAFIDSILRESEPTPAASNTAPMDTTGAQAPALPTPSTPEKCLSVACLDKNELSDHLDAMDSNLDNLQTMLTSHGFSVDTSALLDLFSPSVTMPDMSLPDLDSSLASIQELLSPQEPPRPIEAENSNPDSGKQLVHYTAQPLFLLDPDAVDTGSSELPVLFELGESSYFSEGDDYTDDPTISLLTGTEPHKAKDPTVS

[4] = target: Induced myeloid leukemia cell differentiation protein Mcl-1 (Homo sapiens, UniProt Q07820); format: functional
Chain of Induced myeloid leukemia cell differentiation protein Mcl-1 (Q07820 whole entry): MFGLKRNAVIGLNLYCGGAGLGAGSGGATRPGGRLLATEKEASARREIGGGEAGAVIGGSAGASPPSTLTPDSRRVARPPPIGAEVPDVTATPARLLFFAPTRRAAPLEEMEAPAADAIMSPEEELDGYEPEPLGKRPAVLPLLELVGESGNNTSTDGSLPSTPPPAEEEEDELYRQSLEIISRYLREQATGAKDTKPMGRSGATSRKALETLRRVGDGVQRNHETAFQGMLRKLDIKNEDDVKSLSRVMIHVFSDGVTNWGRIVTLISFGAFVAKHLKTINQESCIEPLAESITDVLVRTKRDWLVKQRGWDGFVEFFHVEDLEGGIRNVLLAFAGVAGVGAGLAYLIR

[5] = target: 26S proteasome non-ATPase regulatory subunit 14 (Homo sapiens, UniProt O00487); experiment: inhibition of proteasome subunit RPN11 – biochemical, fluorescence polarization, uHTS hits, confirmation (AID 602368); format: functional
Chain of 26S proteasome non-ATPase regulatory subunit 14 (O00487 whole entry): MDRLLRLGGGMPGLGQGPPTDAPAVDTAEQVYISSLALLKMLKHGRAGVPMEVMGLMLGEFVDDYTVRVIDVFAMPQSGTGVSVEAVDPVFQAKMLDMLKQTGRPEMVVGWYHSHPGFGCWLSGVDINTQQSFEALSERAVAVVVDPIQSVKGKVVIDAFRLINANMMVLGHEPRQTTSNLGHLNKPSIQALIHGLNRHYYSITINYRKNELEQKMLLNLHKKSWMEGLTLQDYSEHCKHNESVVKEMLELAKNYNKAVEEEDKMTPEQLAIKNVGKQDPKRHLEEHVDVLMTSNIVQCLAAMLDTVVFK

Prothrombin = Prothrombin (Bos taurus, UniProt P00735); experiment: thrombin inhibition, dose response, biochemical, fluorescence polarization, uHTS hits (AID 602369); format: functional
[6] = target: 72 kDa type IV collagenase (Homo sapiens, UniProt P08253); experiment: Dose Response validation of uHTS RPN11 inhibitor hits using a MMP-2 Fluorescence assay.; format: functional
Chain of 72 kDa type IV collagenase (P08253 whole entry): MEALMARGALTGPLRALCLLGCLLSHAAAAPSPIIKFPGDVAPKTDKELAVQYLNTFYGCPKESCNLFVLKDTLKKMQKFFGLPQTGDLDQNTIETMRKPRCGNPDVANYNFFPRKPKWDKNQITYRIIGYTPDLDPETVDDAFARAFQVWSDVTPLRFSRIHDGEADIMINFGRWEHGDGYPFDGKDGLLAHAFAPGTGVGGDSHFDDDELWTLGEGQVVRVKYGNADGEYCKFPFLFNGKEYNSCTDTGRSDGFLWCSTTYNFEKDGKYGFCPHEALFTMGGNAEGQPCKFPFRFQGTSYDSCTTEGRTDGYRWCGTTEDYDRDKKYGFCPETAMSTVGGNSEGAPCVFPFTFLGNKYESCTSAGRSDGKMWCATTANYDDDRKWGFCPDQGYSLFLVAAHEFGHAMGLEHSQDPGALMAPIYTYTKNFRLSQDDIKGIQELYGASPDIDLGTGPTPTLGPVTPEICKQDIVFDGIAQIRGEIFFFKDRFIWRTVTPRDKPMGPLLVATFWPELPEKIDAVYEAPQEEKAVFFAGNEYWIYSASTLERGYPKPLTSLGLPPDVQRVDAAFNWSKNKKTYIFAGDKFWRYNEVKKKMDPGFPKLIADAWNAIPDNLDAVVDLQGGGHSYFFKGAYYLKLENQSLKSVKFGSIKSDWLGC

[7] = target: Heat shock protein HSP 90-alpha (Homo sapiens, UniProt P07900); format: functional, organism-based
[8] = target: SWI/SNF-related matrix-associated actin-dependent regulator of chromatin subfamily A member 2 (Homo sapiens, UniProt P51531); experiment: Luminescence-based cell-based high throughput dose response assay to identify activators of the function of SWI/SNF related, matrix associated, actin dependent regulator of chromatin, subfamily a, member 2 (SMARCA2, BRM).; format: functional
Chain of SWI/SNF-related matrix-associated actin-dependent regulator of chromatin subfamily A member 2 (P51531 whole entry): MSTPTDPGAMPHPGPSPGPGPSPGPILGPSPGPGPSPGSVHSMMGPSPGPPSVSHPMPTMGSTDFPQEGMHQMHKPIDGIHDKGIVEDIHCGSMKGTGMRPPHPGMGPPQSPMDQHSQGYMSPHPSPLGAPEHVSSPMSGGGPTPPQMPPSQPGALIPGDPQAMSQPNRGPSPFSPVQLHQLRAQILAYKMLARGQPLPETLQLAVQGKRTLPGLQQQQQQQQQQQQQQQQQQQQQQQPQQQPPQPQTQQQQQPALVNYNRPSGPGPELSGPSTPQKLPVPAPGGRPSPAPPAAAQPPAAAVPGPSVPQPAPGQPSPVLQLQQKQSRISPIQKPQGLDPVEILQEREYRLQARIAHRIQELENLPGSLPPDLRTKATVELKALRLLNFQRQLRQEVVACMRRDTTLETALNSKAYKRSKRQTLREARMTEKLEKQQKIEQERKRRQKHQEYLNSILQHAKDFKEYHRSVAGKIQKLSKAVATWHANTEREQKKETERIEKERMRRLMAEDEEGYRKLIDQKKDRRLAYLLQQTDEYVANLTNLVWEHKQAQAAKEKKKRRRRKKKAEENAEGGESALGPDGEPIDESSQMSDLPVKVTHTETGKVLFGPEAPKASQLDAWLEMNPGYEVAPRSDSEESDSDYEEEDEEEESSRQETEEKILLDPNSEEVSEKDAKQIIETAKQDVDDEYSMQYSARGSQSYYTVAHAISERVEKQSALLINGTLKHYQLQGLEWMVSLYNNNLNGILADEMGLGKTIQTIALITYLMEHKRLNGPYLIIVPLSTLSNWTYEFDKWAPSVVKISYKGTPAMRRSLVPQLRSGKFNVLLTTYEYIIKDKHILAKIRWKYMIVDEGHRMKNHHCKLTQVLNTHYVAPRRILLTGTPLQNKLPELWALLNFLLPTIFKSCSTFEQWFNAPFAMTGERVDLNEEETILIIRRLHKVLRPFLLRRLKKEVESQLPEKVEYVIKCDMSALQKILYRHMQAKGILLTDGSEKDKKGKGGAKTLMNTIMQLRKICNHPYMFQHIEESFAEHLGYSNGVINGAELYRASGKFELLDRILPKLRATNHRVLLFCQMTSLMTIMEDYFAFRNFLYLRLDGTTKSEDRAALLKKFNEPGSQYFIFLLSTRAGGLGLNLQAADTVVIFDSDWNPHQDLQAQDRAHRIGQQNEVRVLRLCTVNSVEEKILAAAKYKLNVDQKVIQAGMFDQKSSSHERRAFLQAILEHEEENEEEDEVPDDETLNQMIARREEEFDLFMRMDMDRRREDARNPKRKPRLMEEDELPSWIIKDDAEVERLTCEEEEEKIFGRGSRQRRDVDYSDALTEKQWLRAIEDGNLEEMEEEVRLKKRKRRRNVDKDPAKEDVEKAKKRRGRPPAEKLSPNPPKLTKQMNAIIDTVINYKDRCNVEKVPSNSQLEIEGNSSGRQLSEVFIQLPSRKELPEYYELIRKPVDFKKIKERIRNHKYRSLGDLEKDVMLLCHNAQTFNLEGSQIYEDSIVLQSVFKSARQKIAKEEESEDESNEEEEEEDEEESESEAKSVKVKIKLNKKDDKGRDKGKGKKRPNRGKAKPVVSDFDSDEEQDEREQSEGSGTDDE

[9] = Counterscreen for activators of the function of SWI/SNF related, matrix associated, actin dependent regulator of chromatin, subfamily a, member 2 (SMARCA2, BRM): Luminescence-based cell-based high throughput dose response assay to identify non-selective compounds using the VP16 reporter assay.; format: functional
[10] = target: DNA dC->dU-editing enzyme APOBEC-3G (Homo sapiens, UniProt Q9HC16); format: functional;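 note: Dose-response counterscreen measuring inhibition of APOBEC3G DNA deaminase activity, run while confirming APOBEC3A inhibitors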
Chain of DNA dC->dU-editing enzyme APOBEC-3G (Q9HC16 whole entry): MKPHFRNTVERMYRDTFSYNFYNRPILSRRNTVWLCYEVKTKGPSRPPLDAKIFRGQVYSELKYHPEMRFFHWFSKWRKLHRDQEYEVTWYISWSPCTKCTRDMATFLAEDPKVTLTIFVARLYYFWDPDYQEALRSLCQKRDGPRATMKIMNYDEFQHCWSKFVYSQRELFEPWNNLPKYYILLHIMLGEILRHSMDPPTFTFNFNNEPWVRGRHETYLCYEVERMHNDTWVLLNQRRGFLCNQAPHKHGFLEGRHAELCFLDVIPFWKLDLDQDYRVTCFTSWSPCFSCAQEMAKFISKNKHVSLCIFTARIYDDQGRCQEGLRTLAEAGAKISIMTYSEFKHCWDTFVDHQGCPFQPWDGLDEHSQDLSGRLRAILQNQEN

[11] = target: DNA dC->dU-editing enzyme APOBEC-3A (Homo sapiens, UniProt P31941); experiment: Dose Response confirmation of small molecule APOBEC3A DNA Deaminase Inhibitors via a fluorescence-based single-stranded DNA deaminase assay. [Related pubchem assays (depositor defined):AID493011, AID493024]; format: functional
Chain of DNA dC->dU-editing enzyme APOBEC-3A (P31941 whole entry): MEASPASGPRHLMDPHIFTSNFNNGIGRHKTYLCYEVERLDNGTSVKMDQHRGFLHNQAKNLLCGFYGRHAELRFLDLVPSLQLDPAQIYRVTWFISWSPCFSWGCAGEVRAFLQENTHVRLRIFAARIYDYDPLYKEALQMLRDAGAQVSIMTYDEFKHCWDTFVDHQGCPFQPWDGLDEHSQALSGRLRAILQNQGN

[12] = growth suppression of beta-catenin-knockout colon cells, dose response, cell-based, HCT116, human colon tumor (AID 1045); format: functional;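 note: HCT116 colon tumor cells with beta catenin knocked out; cells exposed to compound for 60 hours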
[13] = growth suppression of PTEN-null colon cells, dose response, cell-based, HCT116 PTEN knockout (AID 1047); format: functional;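 note: HCT116 colon tumor cells with PTEN knocked out; cells exposed to compound for 60 hours before readout; potency for loss of cell viability measured by luminescence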
[14] = Counterscreen for inhibitors of Trypanosoma brucei methionyl tRNA synthetase (MetRS): Luminescence-based cell-based high throughput dose response assay to identify compounds that are cytotoxic to Jurkat human T lymphocyte cells.; format: functional
[15] = target: T3, DNA repair protein RAD52 homolog (Homo sapiens, UniProt P43351); format: functional, biochemical
T3 sequence (P43351 whole entry): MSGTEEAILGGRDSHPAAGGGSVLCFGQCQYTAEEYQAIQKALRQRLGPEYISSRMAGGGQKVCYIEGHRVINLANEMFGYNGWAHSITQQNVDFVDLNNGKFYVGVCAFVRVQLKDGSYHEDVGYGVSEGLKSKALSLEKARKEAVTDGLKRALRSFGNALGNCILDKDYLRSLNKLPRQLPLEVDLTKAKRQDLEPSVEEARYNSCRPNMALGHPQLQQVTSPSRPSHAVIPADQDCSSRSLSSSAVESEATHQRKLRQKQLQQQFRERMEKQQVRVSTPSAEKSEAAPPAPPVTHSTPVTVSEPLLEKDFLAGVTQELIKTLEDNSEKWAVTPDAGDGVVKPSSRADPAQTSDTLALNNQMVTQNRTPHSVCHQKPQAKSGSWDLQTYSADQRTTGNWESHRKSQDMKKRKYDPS

[16] = inhibitors of HIV Env-driven cell fusion, dose response, cherry-pick (AID 652057); format: functional, cell-based
[17] = off-target signal loss in HeLa-CEM21 co-culture – HeLa F-luc CTL cells, cherry-picked, counter-screen for HIV-1 Env fusion inhibitor project, dose response (AID 652040); format: functional, cell-based;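 note: potency for signal decrease marking cytotoxic or nonspecific inhibition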
[18] = CEM21 lymphoblast cell cytotoxicity, dose response, cytotoxicity control for viral fusion inhibitor project, CellTiter-Glo luminescence, cherry-picked (AID 652042); format: functional, cell-based;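 note: potency for signal decrease meaning cytotoxicity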
[19] = inhibitors of clade B AD8 Env fusion, dose response, cell-based, cherry-pick (AID 652062); format: functional;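 note: luciferase signal from cell-cell fusion driven by HIV-1 clade B AD8 Env; potency is for inhibitors of fusion seen as a drop in luminescence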
[20] = intracellular Trypanosoma cruzi inhibitors in host cells – cell-based, plate reader, cherry-pick samples, set 3, dose response (AID 651818); format: functional;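 note: compounds incubated with infected cells for about four days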
cells [21] = format: functional, cell-based
[22] = target: T4, Trace amine-associated receptor 1 (Homo sapiens, UniProt Q96RJ0); experiment: Fluorescence-based cell-based high throughput dose response assay to identify agonists of the human trace amine associated receptor 1 (TAAR1).; format: functional
T4 sequence (Q96RJ0 whole entry): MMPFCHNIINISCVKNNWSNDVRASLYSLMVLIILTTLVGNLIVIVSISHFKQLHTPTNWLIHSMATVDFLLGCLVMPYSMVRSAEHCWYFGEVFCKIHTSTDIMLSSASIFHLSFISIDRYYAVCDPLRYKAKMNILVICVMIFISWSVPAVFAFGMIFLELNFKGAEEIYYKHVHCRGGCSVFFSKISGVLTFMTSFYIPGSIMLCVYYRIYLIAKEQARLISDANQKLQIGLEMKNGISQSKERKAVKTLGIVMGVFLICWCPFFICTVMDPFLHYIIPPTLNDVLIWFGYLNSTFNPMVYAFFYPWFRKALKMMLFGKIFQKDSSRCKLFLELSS

[23] = target: T4, Trace amine-associated receptor 1; experiment: Counterscreen for agonists of the human trace amine associated receptor 1 (hTAAR1): Fluorescence-based cell-based high throughput dose response assay to identify hTAAR1 agonist that also desensitize TAAR1 receptor response.; format: functional
cells [24] = format: functional, cell-based; remark: listed apart in the source
[25] = P. falciparum Dd2 growth inhibitors, dose response, SYBR Green, cherry-picked samples (AID 1159567); format: functional, cell-based
[26] = HepG2 cell cytotoxicity, dose response, cytotoxicity control, cherry-picked samples (AID 1159577); format: functional, cell-based
[27] = P. falciparum 3D7-ScDHODH growth inhibitors, dose response, SYBR Green, dry powder samples (AID 1159570); format: functional, cell-based;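 note: parasite growth measured after 72 hours of compound exposure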
[28] = P. falciparum Dd2 growth inhibitors, dose response, SYBR Green, dry powder samples (AID 1159566); format: functional, cell-based;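 note: potency for growth inhibition with lower SYBR green DNA signal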
[29] = HepG2 cell cytotoxicity, dose response, cytotoxicity control, plate reader, dry powder samples (AID 1159569); format: functional, cell-based;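 note: inhibitor potency with signal falling toward the positive control level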
[30] = P. falciparum ATP4 D1247Y mutant growth inhibitors, dose response, NITD609-resistant line, SYBR Green, dry powder (AID 1159571); format: functional, cell-based;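 note: parasites synchronized at ring stage by sorbitol before testing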

SMILES: NC(=O)c1c(NC(=O)C2COc3ccccc3O2)sc2c1CCN(Cc1ccccc1)C2 (stereo not drawn)
- EC50 [1]: 12.1 µM (active)
- EC50 [2]: 85.1 µM (inactive)
- EC50 [3]: > 195 µM (not active)

SMILES: O=C1SC(SCc2ccccc2Cl)=N/C1=C\c1ccc(C(=O)O)cc1
- IC50 [4]: 5.02 µM (active)

SMILES: N#Cc1c(-c2ccco2)cc(-c2ccc(F)cc2)nc1N
- IC50 [5]: 15.8 µM (active)
- IC50 (Prothrombin): 20.9 µM (active)
- IC50 [6]: > 100 µM (inactive)

SMILES: O=C(C1CCN(C2CC(=O)N(c3cccc(Cl)c3)C2=O)CC1)N1CCCC1 (stereo not drawn)
- AC50 [7]: 4.21 µM (active)

SMILES: O=C1CNC(=S)N1c1nc2ccccc2s1
- EC50 [8]: > 91.2 µM (inactive)
- EC50 [9]: > 91.2 µM (inactive)

SMILES: C=CCn1c(NC(=O)c2ccc(C)cc2)c(C#N)sc1=N
- IC50 [10]: 4.44 µM (active)
- IC50 [11]: 3.47 µM (active)

SMILES: COc1cccc(-n2c(SCC(N)=O)nc3ccccc3c2=O)c1
- IC50 [5]: 55.9 µM (active)
- IC50 (Prothrombin): 58.2 µM (active)
- IC50 [6]: > 100 µM (inactive)

SMILES: CCC1C/C(=C\c2cccnc2)C(=O)/C(=C/c2cccnc2)C1 (stereo not drawn)
- EC50 [12]: 0.836 µM (active)
- AC50 [7]: 12.7 µM (active)
- EC50 [13]: 1.01 µM (active)

SMILES: Cc1ccc(C(=O)NN2C(=O)/C(=C/c3nc4ccccc4[nH]3)SC2=S)cc1
- IC50 [14]: 36.7 µM (inactive)

SMILES: O=C(c1ccc(Cn2c(=S)[nH]c3ccc(N4CCOCC4)cc3c2=O)cc1)N1CCC(N2CCCCC2)CC1
- AC50 [15]: 13.9 µM (active)

SMILES: CCn1c(SCC(=O)N2CCN(c3ccc(Cl)cc3)CC2)nc2ccccc2c1=O
- IC50 [10]: 2.57 µM (active)
- IC50 [11]: 2.83 µM (active)

SMILES: Cc1ccc(C)c(CNc2ccc(S(=O)(=O)N3CCCCC3)cc2)c1
- AC50 [16]: 50.5 µM (active)
- AC50 [17]: < 0.26 µM (active)
- AC50 [18]: 63.8 µM (active)
- AC50 [19]: 2.31 µM (active)

SMILES: C[C@H]1CN([C@@H](C)CO)C(=O)c2cccc(NC(=O)Nc3ccc(C(F)(F)F)cc3)c2O[C@H]1CN(C)Cc1ccc2c(c1)OCO2
- AC50 [20]: 1.77 µM (active)

SMILES: CCOC(=O)[C@]12CCCC=C1N(Cc1ccc3c(c1)OCO3)C(=O)[C@H](CC(=O)NCCc1ccccc1OC)C2
- EC50 (cells [21]): > 29.9 µM (inactive)
- EC50 [22]: 4.06 µM (active)
- IC50 [23]: 5.85 µM (active)
- IC50 (cells [24]): > 29.9 µM (inactive)

SMILES: C[C@H]1CN([C@@H](C)CO)C(=O)c2cccc(NC(=O)CCCCCC(=O)Nc3ccccc3N)c2O[C@H]1CN(C)Cc1ccc(C(F)(F)F)cc1
- AC50 [20]: 3.96 µM (active)

SMILES: C[C@@H]1CN([C@@H](C)CO)C(=O)c2cccc(NC(=O)Nc3ccc(F)cc3)c2O[C@@H]1CN(C)Cc1ccc(-c2ccccc2)cc1
- AC50 [20]: 3.67 µM (active)

SMILES: C[C@H]1CN([C@@H](C)CO)C(=O)c2cc(NC(=O)Nc3ccc(C(F)(F)F)cc3)ccc2O[C@@H]1CN(C)Cc1ccc(C(F)(F)F)cc1
- AC50 [20]: 3.35 µM (active)

SMILES: C/C(=N\NS(=O)(=O)c1ccc([N+](=O)[O-])cc1)c1c[nH]c2ccccc12
- EC50 [1]: 14.9 µM (active)
- EC50 [2]: > 99 µM (inactive)

SMILES: Cc1ccccc1S(=O)(=O)N1[C@H](C#N)[C@@H](c2ccc(C#CC3CCCCC3)cc2)[C@@H]1CO
- AC50 [25]: 6.83 µM (active)
- AC50 [26]: > 39 µM (inactive)

SMILES: Cc1ccc(-c2ccc([C@H]3[C@@H](CO)N4CCCCN(S(=O)(=O)c5cccc(C)c5)C[C@H]34)cc2)cc1
- AC50 [25]: 1.31 µM (active)
- AC50 [26]: 9.89 µM (active)

SMILES: COc1ccc2c3c([nH]c2c1)[C@@H](CO)N(Cc1ccncc1)CC31CCN(Cc2ccc(-c3ccccn3)cc2)CC1
- AC50 [25]: 0.546 µM (active)
- AC50 [26]: > 39 µM (inactive)
- AC50 [27]: 0.649 µM (active)
- AC50 [28]: 0.613 µM (active)
- AC50 [29]: 21.2 µM (active)
- AC50 [30]: 0.623 µM (active)

SMILES: CCC(=O)N1[C@H](CO)[C@H](c2ccc(C3=CCCCC3)cc2)[C@H]1CNC1CCCC1
- AC50 [25]: 4.7 µM (active)
- AC50 [26]: > 42 µM (inactive)

SMILES: OCCNc1nc(Nc2cccc(O)c2)nc2ccccc12
- EC50 (cells [21]): > 29.9 µM (inactive)
- EC50 [22]: 0.0786 µM (active)
- IC50 [23]: 0.261 µM (active)
- IC50 (cells [24]): > 29.9 µM (inactive)

SMILES: C[N+]1(C)[C@@H]2CC[C@H]1C[C@@H](OC(=O)C(CO)c1ccccc1)C2 (stereo partly drawn)
- IC50 [10]: 3.18 µM (active)
- IC50 [11]: 2.23 µM (active)

SMILES: N=C(N)N/N=C/c1c(Cl)cccc1Cl [GUANABENZ]
- EC50 (cells [21]): > 29.9 µM (inactive)
- EC50 [22]: > 3.33 µM (active)
- IC50 [23]: 1.17 µM (active)
- IC50 (cells [24]): > 29.9 µM (inactive)
